How the values were obtained:
Assay type in all cases: in vivo
Phakopsora pachyrhizi = test: Asian soybean rust (PHAKPA) disease control; conditions: 25 ppm; for PHAKPA disease control, 1DP: 1 Day Protectant; for PHAKPA disease control, 3DC: 3 Day Curative
Puccinia triticina = test: Wheat brown rust (PUCCRT) disease control on wheat seedlings; conditions: for PUCCRT 1DP disease control rating, LV activity at 125.1 g/H / PUCCRT 3DC disease control rating, LV activity at 125.1 g/H / PUCCRT 1DP, LV activity at 125.1 g/H (% Control rating) / PUCCRT 3DC, LV activity at 125.1 g/H (% Control rating): low volume application; for PUCCRT 1DP disease control rating, LV activity at 125.1 g/H: 1 day protectant; for PUCCRT 3DC disease control rating, LV activity at 125.1 g/H: 3 day curative
Zymoseptoria tritici = test: Leaf blotch of wheat (SEPTTR) disease control on wheat seedlings; conditions: for SEPTTR 1DP disease control rating, LV activity at 125.1 g/H / SEPTTR 3DC disease control rating, LV activity at 125.1 g/H / SEPTTR 1DP, LV activity at 125.1 g/H (% Control rating) / SEPTTR 3DC, LV activity at 125.1 g/H (% Control rating): low volume application; for SEPTTR 1DP disease control rating, LV activity at 125.1 g/H: 1 day protectant; for SEPTTR 3DC disease control rating, LV activity at 125.1 g/H: 3 day curative

CCC[C@@H](Oc1ccccc1)[C@H](C)OC(=O)[C@H](C)NC(=O)c1nccc(OC)c1OC(C)=O [Cmpd 696]
PHAKPA disease control, 1DP (Phakopsora pachyrhizi): A (> 80)
PHAKPA disease control, 3DC (Phakopsora pachyrhizi): A (> 80)
PUCCRT 1DP disease control rating, LV activity at 125.1 g/H (Puccinia triticina): A (> 80)
PUCCRT 3DC disease control rating, LV activity at 125.1 g/H (Puccinia triticina): A (> 80)
SEPTTR 1DP disease control rating, LV activity at 125.1 g/H (Zymoseptoria tritici): A (> 80)
SEPTTR 3DC disease control rating, LV activity at 125.1 g/H (Zymoseptoria tritici): A (> 80)

COc1ccnc(C(=O)N[C@@H](C)C(=O)O[C@@H](C)[C@H](Oc2cccc(Cl)c2)C(C)C)c1OCOC(C)=O [Cmpd 561]
PHAKPA disease control, 1DP (Phakopsora pachyrhizi): A (> 80)
PHAKPA disease control, 3DC (Phakopsora pachyrhizi): A (> 80)
PUCCRT 1DP, LV activity at 125.1 g/H (% Control rating) (Puccinia triticina; 1 Day Protectant): A (> 80)
PUCCRT 3DC, LV activity at 125.1 g/H (% Control rating) (Puccinia triticina; 3 Day Curative): A (> 80)
SEPTTR 1DP, LV activity at 125.1 g/H (% Control rating) (Zymoseptoria tritici; 1 Day Protectant): A (> 80)
SEPTTR 3DC, LV activity at 125.1 g/H (% Control rating) (Zymoseptoria tritici; 3 Day Curative): A (> 80)

CCC(CC)[C@@H](Oc1ccc(Cl)cc1)[C@H](C)OC(=O)[C@H](C)NC(=O)c1nccc(OC)c1OCOC(C)=O [Cmpd 589]
PHAKPA disease control, 1DP (Phakopsora pachyrhizi): A (> 80)
PHAKPA disease control, 3DC (Phakopsora pachyrhizi): B (≤ 80)
PUCCRT 1DP, LV activity at 125.1 g/H (% Control rating) (Puccinia triticina; 1 Day Protectant): A (> 80)
PUCCRT 3DC, LV activity at 125.1 g/H (% Control rating) (Puccinia triticina; 3 Day Curative): A (> 80)
SEPTTR 1DP, LV activity at 125.1 g/H (% Control rating) (Zymoseptoria tritici; 1 Day Protectant): A (> 80)
SEPTTR 3DC, LV activity at 125.1 g/H (% Control rating) (Zymoseptoria tritici; 3 Day Curative): A (> 80)

COc1ccnc(C(=O)NC(C)C(=O)OC(C)(C)C(Oc2ccccc2)C(C)C)c1OCOC(C)=O (mixture of isomers) [Cmpd 904]
PHAKPA disease control, 1DP (Phakopsora pachyrhizi): A (> 80)
PHAKPA disease control, 3DC (Phakopsora pachyrhizi): B (≤ 80)
PUCCRT 1DP disease control rating, LV activity at 125.1 g/H (Puccinia triticina): A (> 80)
PUCCRT 3DC disease control rating, LV activity at 125.1 g/H (Puccinia triticina): A (> 80)
SEPTTR 1DP disease control rating, LV activity at 125.1 g/H (Zymoseptoria tritici): B (≤ 80)
SEPTTR 3DC disease control rating, LV activity at 125.1 g/H (Zymoseptoria tritici): A (> 80)

COc1ccnc(C(=O)N[C@@H](C)C(=O)O[C@@H](C)[C@H](Oc2cccc(Cl)c2)C2CCCC2)c1OCOC(C)=O [Cmpd 911, (S)-(1R,2S)-1-(3-chlorophenoxy)-1-cyclopentylpropan-2-yl-2-(3-(acetoxymethoxy)-4-methoxypicolinamido)propanoate]
PHAKPA disease control, 1DP (Phakopsora pachyrhizi): A (> 80)
PHAKPA disease control, 3DC (Phakopsora pachyrhizi): B (≤ 80)
PUCCRT 1DP disease control rating, LV activity at 125.1 g/H (Puccinia triticina): A (> 80)
PUCCRT 3DC disease control rating, LV activity at 125.1 g/H (Puccinia triticina): A (> 80)
SEPTTR 1DP disease control rating, LV activity at 125.1 g/H (Zymoseptoria tritici): A (> 80)
SEPTTR 3DC disease control rating, LV activity at 125.1 g/H (Zymoseptoria tritici): A (> 80)

CCC(CC)[C@@H](OCC1CC1)[C@H](C)OC(=O)[C@H](C)NC(=O)c1nccc(OC)c1OCOC(C)=O [Cmpd 553]
PHAKPA disease control, 1DP (Phakopsora pachyrhizi): A (> 80)
PHAKPA disease control, 3DC (Phakopsora pachyrhizi): A (> 80)
PUCCRT 1DP, LV activity at 125.1 g/H (% Control rating) (Puccinia triticina; 1 Day Protectant): A (> 80)
PUCCRT 3DC, LV activity at 125.1 g/H (% Control rating) (Puccinia triticina; 3 Day Curative): A (> 80)
SEPTTR 1DP, LV activity at 125.1 g/H (% Control rating) (Zymoseptoria tritici; 1 Day Protectant): B (≤ 80)
SEPTTR 3DC, LV activity at 125.1 g/H (% Control rating) (Zymoseptoria tritici; 3 Day Curative): A (> 80)

C=CC(OCCC)C(Oc1ccccc1)C(C)OC(=O)C(C)NC(=O)c1nccc(OC)c1OCOC(C)=O (stereo not shown) [Cmpd 455]
PHAKPA disease control, 1DP (Phakopsora pachyrhizi): A (> 80)
PHAKPA disease control, 3DC (Phakopsora pachyrhizi): B (≤ 80)
PUCCRT 1DP disease control rating, HV activity (Puccinia triticina; HV application at 100 ppm, 1 Day Protectant, wheat brown rust): A (> 80)
PUCCRT 3DC disease control rating, HV activity (Puccinia triticina; HV application at 100 ppm, 3 Day Curative, wheat brown rust): A (> 80)
PUCCRT 1DP disease control rating, LV activity (Puccinia triticina; Low volume application at 125.1 g/H, 1 Day Protectant, wheat brown rust): A (> 80)
PUCCRT 3DC disease control rating, LV activity (Puccinia triticina; Low volume application at 125.1 g/H, 3 Day Curative, wheat brown rust): A (> 80)
SEPTTR 1DP disease control rating, HV activity (Zymoseptoria tritici; HV application at 100 ppm, 1 Day Protectant, wheat leaf blotch): A (> 80)
SEPTTR 3DC disease control rating, HV activity (Zymoseptoria tritici; HV application at 100 ppm, 3 Day Curative, wheat leaf blotch): A (> 80)
SEPTTR 1DP disease control rating, LV activity (Zymoseptoria tritici; Low volume application at 125.1 g/H, 1 Day Protectant, wheat leaf blotch): A (> 80)
SEPTTR 3DC disease control rating, LV activity (Zymoseptoria tritici; Low volume application at 125.1 g/H, 3 Day Curative, wheat leaf blotch): A (> 80)

COc1ccnc(C(=O)N[C@@H](C)C(=O)O[C@@H](C)[C@H](Oc2cccc(F)c2)c2ccccc2)c1OC(C)=O [Cmpd 575]
PHAKPA disease control, 1DP (Phakopsora pachyrhizi): A (> 80)
PHAKPA disease control, 3DC (Phakopsora pachyrhizi): B (≤ 80)
PUCCRT 1DP, LV activity at 125.1 g/H (% Control rating) (Puccinia triticina; 1 Day Protectant): A (> 80)
PUCCRT 3DC, LV activity at 125.1 g/H (% Control rating) (Puccinia triticina; 3 Day Curative): A (> 80)
SEPTTR 1DP, LV activity at 125.1 g/H (% Control rating) (Zymoseptoria tritici; 1 Day Protectant): A (> 80)
SEPTTR 3DC, LV activity at 125.1 g/H (% Control rating) (Zymoseptoria tritici; 3 Day Curative): A (> 80)
